# Test results reported in patent publication US5126348A, “Bioavailability enhancers” (priority 1989, dated 1992).
# Read-outs that look alike come from different tables or passages of the source.
# Legend:
# [1] = design: species or system beagle dog; details: dog, in vivo
# [2] = in vivo
# Description: Venous blood samples were taken at time intervals listed below. […] After administration to the human volunteer, blood samples were taken at the same time intervals as the previous test. Relative salicylic acid concentrations of the samples were compared using fluorescence units as determined by spectrofluorometer.
# [3] = Theophylline blood levels as a function of time after oral administration, with and without nicotinic acid (Example 1)
# Description: FIG. 1 is a graph showing theophylline blood levels as a function of time after administration, comparing theophylline in combination with nicotinic acid with theophylline alone.
# [4] = cited from earlier work
# [5] = cited from earlier work; remark: listed apart in the source
# [6] = cited from earlier work; remark: listed apart in the source
smiles,measurement,setting,value
"CC(=O)Oc1ccccc1C(=O)O [ASA, acetylsalicylic acid]",absorption induced by reserpine,[1],near-complete absorption
same,"elimination kinetics, reserpine-treated vs. non-pretreated dogs",[1],similar
same,"plasma concentration of SA, reserpine-treated vs. non-pretreated dogs",[1],considerably higher at each time interval
same,"time of peak plasma concentrations of SA, reserpine-treated vs. non-pretreated dogs",[1],at the same time in both tests
same,% of maximum concentration,[1]; 10 min,24%
same,plasma SA concentration,[1]; 10 min,19.9 µg/mL
same,% of maximum concentration,[1]; 20 min,47%
same,% of maximum concentration,[1]; 30 min,70%
same,plasma SA concentration,[1]; 60 min,72.8 µg/mL
same,% of maximum concentration,[1]; 120 min,100%
same,plasma SA concentration (max),[1]; 120 min,81.4 µg/mL
same,"Total area under the plasma level curve, increase over non-pretreated dogs",[1]; 480 min,13.2%
same,"total AUC, increase",[1]; iv,14.5%
same,% of Dose of ASA Absorbed (using IV ASA as 100% absorption),[1]; po,87.5%
same,bioavailability of aspirin with nicotinic acid,[2],enhanced
"Cn1c(=O)c2[nH]cnc2n(C)c1=O [Theophylline, theophylline]",concentration at 29 min,"[3]; human, in vivo, po, 300 mg",< 500 ng/mL
same,concentration at 1.05 h,"[3]; human, in vivo, po, 300 mg",2200 ng/mL
same,concentration at 1.55 h,"[3]; human, in vivo, po, 300 mg",4400 ng/mL
same,concentration at 121 min,"[3]; human, in vivo, po, 300 mg",5300 ng/mL
same,concentration at 2.5 h,"[3]; human, in vivo, po, 300 mg",7000 ng/mL
same,concentration at 184 min,"[3]; human, in vivo, po, 300 mg",7200 ng/mL
same,Blood levels of theophylline,"[3]; time after administration 0, oral, 300 mg theophylline, with or without 100 mg niacin",< 50 ng/mL
NC(=O)c1cccnc1 [niacinamide],vasodilation or flushing,[4]; niacinamide form,does not cause the vasodilation or flushing
O=C(O)c1cccnc1 [nicotinic acid],absorption with food ingestion,[5],not affected
same,toxicity,[4]; even at high dosages,relatively harmless
same,low density lipids and cholesterol in the blood,[4]; high doses (3-6 g/day),lowers
same,peripheral vascular resistance,[4]; high doses (3-6 g/day),decreases
same,stroke volume of the heart,[4]; high doses (3-6 g/day),increases
same,tolerated dosage,"[4]; human, in vivo",up to 6 grams per day
same,effects on blood pressure,[4]; in vivo,only minor effects
same,heart rate and cardiac output,[4]; in vivo,increases
same,peripheral blood flow,[4]; in vivo,increases
same,flushing effect with acetylsalicylic acid,[4]; with acetylsalicylic acid,reduced
CC(C)NCC(O)COc1cccc2ccccc12 (stereo not shown) [propranolol],bioavailability with hydralazine,[6],increased bioavailability
